Laboratory results reported in patent US11384060B2, “Amide compounds and use thereof” (ALPHALA CO., LTD., priority 2017, dated 2022).
pIC50: −log10 of the molar value. Read-outs that look alike come from different tables or passages of the source.

Columns and labels:
[1] = target: T1, glucagon receptor (GCGR) (Homo sapiens, UniProt P47871); assay: I125-glucagon binding assay (competition, GCGR membrane fractions)
T1 construct: expressed in transfected cells; host or cells: CHO-K1 cells overexpressing GCGR (membrane fractions)
How it was run: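 Membranes from CHO-K1 cells overexpressing GCGR, 7.5 μg/well in 50 mM Tris pH 7.4 with 0.5% BSA, were preincubated 5 min with serially diluted compounds, then given 0.0625 nM final I^125-glucagon for 30 min at 25° C. Bound label was filtered on PEI-coated GF/B and counted; IC50 by non-linear regression.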

[2] = target: T2, glucagon receptor (GCGR) overexpressed CHO-K1 cells or human primary hepatocytes (Homo sapiens, UniProt P47871); assay: Glucagon cAMP inhibition assay (Cisbio cAMP Dynamic 2 HTRF); type: cell-based
T2 construct: expressed in transfected cells; host or cells: GCGR overexpressed CHO-K1 cells or human primary hepatocytes (endogenous receptor)
How it was run: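 GCGR-overexpressing CHO-K1 cells or human primary hepatocytes in HBSS with 0.1% BSA and 800 nM IBMX, pre-incubated 30 min with serially diluted compounds (1% DMSO final), then stimulated 30 min at room temperature with glucagon at its EC50. cAMP measured by HTRF after 60 min lysis; IC50 by non-linear regression.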

T2 sequence (P47871 26-477): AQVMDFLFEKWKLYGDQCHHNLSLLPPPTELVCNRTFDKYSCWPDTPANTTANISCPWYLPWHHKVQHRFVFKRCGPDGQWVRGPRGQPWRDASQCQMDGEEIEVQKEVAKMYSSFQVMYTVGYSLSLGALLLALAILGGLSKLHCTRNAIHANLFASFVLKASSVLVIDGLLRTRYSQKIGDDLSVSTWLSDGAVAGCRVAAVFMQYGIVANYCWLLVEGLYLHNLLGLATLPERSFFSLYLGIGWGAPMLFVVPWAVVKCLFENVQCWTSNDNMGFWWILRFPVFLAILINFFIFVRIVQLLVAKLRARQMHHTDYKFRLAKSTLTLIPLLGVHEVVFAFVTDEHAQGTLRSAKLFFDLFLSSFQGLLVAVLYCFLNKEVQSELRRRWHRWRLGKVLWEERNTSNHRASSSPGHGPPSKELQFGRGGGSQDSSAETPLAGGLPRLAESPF
T1 sequence (P47871 26-477): as above

| pIC50 [1] | IC50 cAMP [2] [µM] | IC50 ([1]; uM) [µM] | IC50 cAMP ([2]; uM) [µM] | SMILES |
| --- | --- | --- | --- | --- |
| 5.24 | 30.78 |  |  | CC(C)C[C@@H](Nc1ccc(C(=O)NCCC(=O)O)cc1)C(=O)Nc1ccc(C(F)(F)F)cc1 [Compound 24-10, (R)-3-(4-((4-methyl-1-oxo-1-((4-(trifluoromethyl)phenyl)amino)pentan-2-yl)amino)benzamido)propanoic Acid] |
| 6.24 | 7.988 |  |  | CCOC(=O)CCNC(=O)c1ccc(N[C@H](Cc2ccc(-c3ccc(C(C)(C)C)cc3)cc2)C(=O)Nc2ccc(C(F)(F)F)cc2)cc1 [Compound 24-15, Ethyl (R)-3-(4-((3-(4′-(tert-butyl)-[1,1′-biphenyl]-4-yl)-1-oxo-1-((4-(trifluoromethyl)phenyl)amino)propan-2-yl)amino)benzamido)propanoate] |
|  | 0.1671 | > 30 |  | CCOC(=O)CCNC(=O)c1ccc(N[C@H](Cc2ccc(-c3ccc(Cl)cc3Cl)cc2)C(=O)Nc2ccc(C(F)(F)F)cc2)cc1 [Compound 24-17, Ethyl (R)-3-(4-((3-(2′,4′-dichloro-[1,1′-biphenyl]-4-yl)-1-oxo-1-((4-(trifluoromethyl)phenyl)amino)propan-2-yl)amino)benzamido)propanoate] |
| 6.62 | 1.51 |  |  | O=C(O)CCNC(=O)c1ccc(N[C@H](Cc2ccc(-c3ccc(Cl)cc3Cl)cc2)C(=O)Nc2ccc(C(F)(F)F)cc2)cc1 [Compound 24-18, (R)-3-(4-((3-(2′,4′-dichloro-[1,1′-biphenyl]-4-yl)-1-oxo-1-((4-(trifluoromethyl)phenyl)amino)propan-2-yl)amino)benzamido)propanoic Acid] |
| 5.86 | 0.5384 |  |  | CCOC(=O)CCNC(=O)c1ccc(N[C@H](Cc2ccc(-c3cc4ccccc4o3)cc2)C(=O)Nc2ccc(C(F)(F)F)cc2)cc1 [Compound 24-19, Ethyl (R)-3-(4-((3-(4-(benzofuran-2-yl)phenyl)-1-oxo-1-((4-(trifluoromethyl)phenyl)amino)propan-2-yl)amino)benzamido)propanoate] |
| 6.72 | 1.947 |  |  | O=C(O)CCNC(=O)c1ccc(N[C@H](Cc2ccc(-c3cc4ccccc4o3)cc2)C(=O)Nc2ccc(C(F)(F)F)cc2)cc1 [Compound 24-20, (R)-3-(4-((3-(4-(benzofuran-2-yl)phenyl)-1-oxo-1-((4-(trifluoromethyl)phenyl)amino)propan-2-yl)amino)benzamido)propanoic Acid] |
| 5.39 |  |  | >10 | CCOC(=O)CCNC(=O)c1ccc(N[C@H](Cc2ccc(-c3cc4ccccc4o3)cc2)C(=O)NC(C)C)cc1 [Compound 24-21, Ethyl (R)-3-(4-((3-(4-(benzofuran-2-yl)phenyl)-1-(isopropylamino)-1-oxopropan-2-yl)amino)benzamido)propanoate] |
| 4.75 | 9.522 |  |  | CC(C)NC(=O)[C@@H](Cc1ccc(-c2cc3ccccc3o2)cc1)Nc1ccc(C(=O)NCCC(=O)O)cc1 [Compound 24-22, (R)-3-(4-((3-(4-(benzofuran-2-yl)phenyl)-1-(isopropylamino)-1-oxopropan-2-yl)amino)benzamido)propanoic Acid] |
| 6.77 | 9.529 |  |  | CCOC(=O)CCNC(=O)c1ccc(N[C@H](Cc2ccc(-c3cc4ccccc4o3)cc2)C(=O)Nc2cc(F)cc(F)c2)cc1 [Compound 24-23, Ethyl (R)-3-(4-((3-(4-(benzofuran-2-yl)phenyl)-1-((3,5-difluorophenyl)amino)-1-oxopropan-2-yl)amino)benzamido)propanoate] |
| 5.92 | 0.214 |  |  | O=C(O)CCNC(=O)c1ccc(N[C@H](Cc2ccc(-c3cc4ccccc4o3)cc2)C(=O)Nc2cc(F)cc(F)c2)cc1 [Compound 24-24, (R)-3-(4-((3-(4-(benzofuran-2-yl)phenyl)-1-((3,5-difluorophenyl)amino)-1-oxopropan-2-yl)amino)benzamido)propanoic Acid] |
| 6.65 |  |  | >10 | CCOC(=O)CCNC(=O)c1ccc(N[C@H](Cc2ccc(-c3ccc(C(C)(C)C)cc3)cc2)C(=O)Nc2ccc(OC(F)(F)F)cc2)cc1 [Compound 24-25, Ethyl (R)-3-(4-((3-(4′-(tert-butyl)-[1,1′-biphenyl]-4-yl)-1-oxo-1-((4-(trifluoromethoxy)phenyl)amino)propan-2-yl)amino)benzamido)propanoate] |
| 7.34 | 0.8313 |  |  | CC(C)(C)c1ccc(-c2ccc(C[C@@H](Nc3ccc(C(=O)NCCC(=O)O)cc3)C(=O)Nc3ccc(OC(F)(F)F)cc3)cc2)cc1 [Compound 24-26, (R)-3-(4-((3-(4′-(tat-butyl)-[1,1′-biphenyl]-4-yl)-1-oxo-1-((4-(trifluoromethoxy)phenyl)amino)propan-2-yl)amino)benzamido)propanoic Acid] |
| 5.89 | 0.3185 |  |  | CCOC(=O)CCNC(=O)c1ccc(N[C@H](Cc2ccc(-c3ccc(C(F)(F)F)cc3)cc2)C(=O)Nc2ccc(OC(F)(F)F)cc2)cc1 [Compound 24-27, Ethyl (R)-3-(4-((1-oxo-1-((4-(trifluoromethoxy)phenyl)amino)-3-(4′-(trifluoromethyl)-[1,1′-biphenyl]-4-yl)propan-2-yl)amino)benzamido)propanoate] |
| 7.33 | 1.54 |  |  | O=C(O)CCNC(=O)c1ccc(N[C@H](Cc2ccc(-c3ccc(C(F)(F)F)cc3)cc2)C(=O)Nc2ccc(OC(F)(F)F)cc2)cc1 [Compound 24-28, (R)-3-(4-((1-oxo-1-((4-(trifluoromethoxy)phenyl)amino)-3-(4′-(trifluoromethyl)-[1,1′-biphenyl]-4-yl)propan-2-yl)amino)benzamido)propanoic Acid] |
